Data reported in ChEMBL document CHEMBL5352478, “Novel pyridine-containing histone deacetylase inhibitors strongly arrest proliferation, induce apoptosis and modulate miRNAs in cancer cells” (Eur J Med Chem, 2023).

Tested on: HL-60
Assay: Antiproliferative activity against human HL-60 cells incubated for 48 hrs
Format: functional, cell-based
Conditions: HL-60, 48 h; call rule not given here
Nc1ccccc1NC(=O)c1ccc(CNc2nccc(-c3cccnc3)n2)cc1 [MOCETINOSTAT] gave an IC50 of 0.418 µM.

Target: Histone deacetylase 4 (Homo sapiens, UniProt P56524)
Sequence (P56524 whole entry): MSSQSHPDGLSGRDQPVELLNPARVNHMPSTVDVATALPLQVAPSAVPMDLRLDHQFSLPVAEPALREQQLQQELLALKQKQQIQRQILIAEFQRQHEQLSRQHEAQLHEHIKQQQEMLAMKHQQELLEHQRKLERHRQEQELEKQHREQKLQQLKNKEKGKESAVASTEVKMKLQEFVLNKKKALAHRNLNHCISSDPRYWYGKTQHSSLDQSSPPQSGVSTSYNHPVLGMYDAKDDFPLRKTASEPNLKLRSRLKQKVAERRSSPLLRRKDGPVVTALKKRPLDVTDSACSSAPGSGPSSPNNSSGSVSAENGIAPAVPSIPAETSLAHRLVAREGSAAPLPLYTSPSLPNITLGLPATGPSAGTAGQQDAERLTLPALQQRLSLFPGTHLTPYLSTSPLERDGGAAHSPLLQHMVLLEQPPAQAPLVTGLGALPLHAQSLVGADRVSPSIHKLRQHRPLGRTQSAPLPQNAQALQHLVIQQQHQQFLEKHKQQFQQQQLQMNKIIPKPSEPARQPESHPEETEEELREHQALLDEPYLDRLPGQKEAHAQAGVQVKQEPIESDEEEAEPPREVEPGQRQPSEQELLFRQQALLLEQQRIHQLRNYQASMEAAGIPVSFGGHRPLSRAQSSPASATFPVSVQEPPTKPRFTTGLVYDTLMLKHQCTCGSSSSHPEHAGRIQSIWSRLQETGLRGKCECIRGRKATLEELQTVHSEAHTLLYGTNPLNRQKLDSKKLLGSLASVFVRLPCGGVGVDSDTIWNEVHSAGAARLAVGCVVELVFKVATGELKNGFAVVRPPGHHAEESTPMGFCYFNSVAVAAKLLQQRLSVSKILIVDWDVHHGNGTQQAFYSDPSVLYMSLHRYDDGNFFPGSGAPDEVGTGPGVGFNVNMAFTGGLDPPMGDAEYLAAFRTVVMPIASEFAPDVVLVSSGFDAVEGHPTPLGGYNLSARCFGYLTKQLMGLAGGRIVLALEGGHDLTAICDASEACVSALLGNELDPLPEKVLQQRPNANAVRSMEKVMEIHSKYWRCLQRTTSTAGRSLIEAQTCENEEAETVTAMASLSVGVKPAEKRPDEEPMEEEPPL
Assay: not given
Conditions: not given
For Nc1ccccc1NC(=O)/C=C/c1ccc(NC(=O)Cc2ccccc2)cn1, the IC50 was “Not Active”. With CC(C)C(C(=O)Nc1ccc(/C=C/C(=O)Nc2ccccc2N)nc1)c1ccccc1 (stereo not given) the IC50 was “Not Active”. In the case of CC(C)C(C(=O)Nc1ccc(C(=O)Nc2ccccc2N)nc1)c1ccccc1 (stereo not given), the IC50 is reported as “Not Active”. With Nc1ccccc1NC(=O)/C=C/c1ccc(NC(=O)Cc2cccc3ccccc23)cn1 the IC50 was “Not Active”.

Tested on: OCI-AML-3
Assay: Antiproliferative activity against human OCI-AML-3 cells incubated for 48 hrs
Format: functional, cell-based
Conditions: OCI-AML-3, 48 h
In the case of Nc1ccccc1NC(=O)c1ccc(CNc2nccc(-c3cccnc3)n2)cc1 [MOCETINOSTAT], the IC50 is reported as 1.79 µM.

Tested on: HCT-116
Assay: cells
Format: functional, cell-based
Conditions: Homo sapiens, HCT-116, 72 h
Compound CC(C)C(C(=O)Nc1ccc(/C=C/C(=O)Nc2ccccc2N)nc1)c1ccccc1 (stereo not given) has an IC50 of 4.38 µM. Compound Nc1ccccc1NC(=O)/C=C/c1ccc(NC(=O)Cc2cccc3ccccc23)cn1 has an IC50 of 8.28 µM.

Tested on: OCI-AML2
Assay: Antiproliferative activity against human OCI-AML2 cells incubated for 48 hrs
Format: functional, cell-based
Conditions: OCI-AML2, 48 h
Compound Nc1ccccc1NC(=O)c1ccc(CNc2nccc(-c3cccnc3)n2)cc1 [MOCETINOSTAT] has an IC50 of 1.56 µM.

Tested on: A549
Assay: cells
Format: functional, cell-based
Conditions: Homo sapiens, A549, 72 h
CC(C)C(C(=O)Nc1ccc(/C=C/C(=O)Nc2ccccc2N)nc1)c1ccccc1 (stereo not given) showed an IC50 of 5.69 µM. Compound Nc1ccccc1NC(=O)/C=C/c1ccc(NC(=O)Cc2cccc3ccccc23)cn1 has an IC50 of 9.43 µM.

Tested on: K562
Assay: cells
Format: functional, cell-based
Conditions: Homo sapiens, K562, 72 h
In the case of CC(C)C(C(=O)Nc1ccc(/C=C/C(=O)Nc2ccccc2N)nc1)c1ccccc1 (stereo not given), the IC50 is reported as 2.89 µM. In the case of Nc1ccccc1NC(=O)/C=C/c1ccc(NC(=O)Cc2cccc3ccccc23)cn1, the IC50 is reported as 3.14 µM.

Tested on: Kasumi 1
Assay: Antiproliferative activity against human Kasumi 1 cells incubated for 48 hrs
Format: functional, cell-based
Conditions: Kasumi 1, 48 h
In the case of Nc1ccccc1NC(=O)c1ccc(CNc2nccc(-c3cccnc3)n2)cc1 [MOCETINOSTAT], the IC50 is reported as 0.151 µM.

Tested on: U-937
Assay: Antiproliferative activity against human U-937 cells incubated for 48 hrs
Format: functional, cell-based
Conditions: U-937, 48 h
Work on Nc1ccccc1NC(=O)c1ccc(CNc2nccc(-c3cccnc3)n2)cc1 [MOCETINOSTAT] yielded an IC50 of 1.37 µM.

Target: T1, Protein deacetylase HDAC6 (Homo sapiens, UniProt Q9UBN7)
T1 sequence (Q9UBN7 whole entry): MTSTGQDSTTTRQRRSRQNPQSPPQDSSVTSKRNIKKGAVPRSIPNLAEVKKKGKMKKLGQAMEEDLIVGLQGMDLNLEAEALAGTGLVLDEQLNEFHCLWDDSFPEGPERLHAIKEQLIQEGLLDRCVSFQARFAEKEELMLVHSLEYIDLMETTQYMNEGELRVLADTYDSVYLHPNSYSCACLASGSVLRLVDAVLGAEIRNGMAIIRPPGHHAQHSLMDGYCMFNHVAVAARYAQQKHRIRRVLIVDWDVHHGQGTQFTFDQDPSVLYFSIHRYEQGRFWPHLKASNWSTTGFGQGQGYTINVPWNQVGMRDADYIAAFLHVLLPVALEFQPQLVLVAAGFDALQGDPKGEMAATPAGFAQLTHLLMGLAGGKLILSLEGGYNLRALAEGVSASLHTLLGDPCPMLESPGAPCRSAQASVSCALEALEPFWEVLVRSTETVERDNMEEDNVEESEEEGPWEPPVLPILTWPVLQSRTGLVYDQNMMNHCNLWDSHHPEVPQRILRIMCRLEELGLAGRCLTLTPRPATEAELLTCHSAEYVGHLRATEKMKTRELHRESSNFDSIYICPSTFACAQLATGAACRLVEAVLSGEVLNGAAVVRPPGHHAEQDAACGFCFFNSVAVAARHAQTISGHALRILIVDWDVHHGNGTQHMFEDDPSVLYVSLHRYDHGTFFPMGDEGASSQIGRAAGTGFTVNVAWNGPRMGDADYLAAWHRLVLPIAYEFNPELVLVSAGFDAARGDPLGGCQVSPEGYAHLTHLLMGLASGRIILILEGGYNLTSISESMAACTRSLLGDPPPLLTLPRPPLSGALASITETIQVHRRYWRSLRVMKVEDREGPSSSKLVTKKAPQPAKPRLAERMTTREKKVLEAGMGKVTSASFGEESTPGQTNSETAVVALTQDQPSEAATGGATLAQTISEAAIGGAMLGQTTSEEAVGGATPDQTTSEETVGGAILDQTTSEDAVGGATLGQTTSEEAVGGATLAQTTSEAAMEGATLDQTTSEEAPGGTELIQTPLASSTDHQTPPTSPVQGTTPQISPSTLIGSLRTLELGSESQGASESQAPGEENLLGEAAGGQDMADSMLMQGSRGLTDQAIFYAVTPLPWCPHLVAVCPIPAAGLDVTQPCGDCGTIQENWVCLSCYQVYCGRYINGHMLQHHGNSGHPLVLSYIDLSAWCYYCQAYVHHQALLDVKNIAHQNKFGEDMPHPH
Assay: not given
Conditions: not given
For Nc1ccccc1NC(=O)/C=C/c1ccc(NC(=O)Cc2ccccc2)cn1, the IC50 was “Not Active”. With CC(C)C(C(=O)Nc1ccc(/C=C/C(=O)Nc2ccccc2N)nc1)c1ccccc1 (stereo not given) the IC50 was “Not Active”. For CC(C)C(C(=O)Nc1ccc(C(=O)Nc2ccccc2N)nc1)c1ccccc1 (stereo not given), the IC50 was “Not Active”. For Nc1ccccc1NC(=O)/C=C/c1ccc(NC(=O)Cc2cccc3ccccc23)cn1, the IC50 was “Not Active”.

Tested on: MV4-11
Assay: Antiproliferative activity against human MV4-11 cells incubated for 48 hrs
Format: functional, cell-based
Conditions: MV4-11, 48 h
For Nc1ccccc1NC(=O)c1ccc(CNc2nccc(-c3cccnc3)n2)cc1 [MOCETINOSTAT], the IC50 was 0.19 µM.

Tested on: KARPAS-299
Assay: Antiproliferative activity against human KARPAS-299 cells incubated for 48 hrs
Format: functional, cell-based
Conditions: KARPAS-299, 48 h
Nc1ccccc1NC(=O)c1ccc(CNc2nccc(-c3cccnc3)n2)cc1 [MOCETINOSTAT] showed an IC50 of 4.15 µM.

Target: T2, Histone deacetylase 8 (Homo sapiens, UniProt Q9BY41)
T2 sequence (Q9BY41 whole entry): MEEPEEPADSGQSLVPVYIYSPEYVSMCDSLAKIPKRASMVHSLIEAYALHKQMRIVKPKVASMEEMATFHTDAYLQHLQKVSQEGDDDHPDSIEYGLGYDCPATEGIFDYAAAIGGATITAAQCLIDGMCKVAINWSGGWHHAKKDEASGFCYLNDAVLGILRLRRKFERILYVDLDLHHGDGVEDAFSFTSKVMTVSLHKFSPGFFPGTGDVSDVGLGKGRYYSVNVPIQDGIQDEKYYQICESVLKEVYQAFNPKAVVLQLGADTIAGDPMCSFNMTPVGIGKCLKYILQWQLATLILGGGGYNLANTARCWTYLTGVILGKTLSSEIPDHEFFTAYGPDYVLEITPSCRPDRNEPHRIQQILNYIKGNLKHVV
Assay: not given
Conditions: not given
In the case of Nc1ccccc1NC(=O)/C=C/c1ccc(NC(=O)Cc2cccc3ccccc23)cn1, the IC50 is reported as “Not Active”.

Tested on: not listed separately
Assay: Antiproliferative activity against human IMS-M2 cells incubated for 48 hrs
Format: functional, cell-based
Conditions: IMS-M2, 48 h
Work on Nc1ccccc1NC(=O)c1ccc(CNc2nccc(-c3cccnc3)n2)cc1 [MOCETINOSTAT] yielded an IC50 of 0.657 µM.

Target: T2, Histone deacetylase 8
Assay: not given
Conditions: not given
Remark: another data set of the same source
Work on Nc1ccccc1NC(=O)/C=C/c1ccc(NC(=O)Cc2ccccc2)cn1 yielded an IC50 of 31.4 µM. With CC(C)C(C(=O)Nc1ccc(/C=C/C(=O)Nc2ccccc2N)nc1)c1ccccc1 (stereo not given) the IC50 was 43.1 µM. With CC(C)C(C(=O)Nc1ccc(C(=O)Nc2ccccc2N)nc1)c1ccccc1 (stereo not given) the IC50 was 75.2 µM.

Target: Histone deacetylase 3 (Homo sapiens, UniProt O15379)
Sequence (O15379 whole entry): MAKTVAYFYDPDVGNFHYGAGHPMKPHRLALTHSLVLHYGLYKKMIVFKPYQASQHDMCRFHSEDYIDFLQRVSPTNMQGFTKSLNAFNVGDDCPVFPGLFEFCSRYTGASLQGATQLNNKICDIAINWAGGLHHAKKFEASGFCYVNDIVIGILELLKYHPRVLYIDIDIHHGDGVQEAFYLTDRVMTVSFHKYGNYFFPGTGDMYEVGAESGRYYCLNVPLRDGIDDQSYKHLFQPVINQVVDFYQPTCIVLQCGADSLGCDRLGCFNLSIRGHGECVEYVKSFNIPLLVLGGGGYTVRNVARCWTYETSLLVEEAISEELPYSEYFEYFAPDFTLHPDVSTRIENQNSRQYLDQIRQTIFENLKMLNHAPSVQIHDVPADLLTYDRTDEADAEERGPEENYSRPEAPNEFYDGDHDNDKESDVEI
Assay: not given
Conditions: not given
Compound Nc1ccccc1NC(=O)/C=C/c1ccc(NC(=O)Cc2ccccc2)cn1 has an IC50 of 0.224 µM. CC(C)C(C(=O)Nc1ccc(/C=C/C(=O)Nc2ccccc2N)nc1)c1ccccc1 (stereo not given) gave an IC50 of 0.319 µM. CC(C)C(C(=O)Nc1ccc(C(=O)Nc2ccccc2N)nc1)c1ccccc1 (stereo not given) showed an IC50 of 0.488 µM. For Nc1ccccc1NC(=O)/C=C/c1ccc(NC(=O)Cc2cccc3ccccc23)cn1, the IC50 was 0.264 µM.

Tested on: NB-4
Assay: Antiproliferative activity against human NB4 cells incubated for 48 hrs
Format: functional, cell-based
Conditions: NB-4, 48 h
Work on Nc1ccccc1NC(=O)c1ccc(CNc2nccc(-c3cccnc3)n2)cc1 [MOCETINOSTAT] yielded an IC50 of 0.406 µM.

Target: Histone deacetylase 1 (Homo sapiens, UniProt Q13547)
Sequence (Q13547 whole entry): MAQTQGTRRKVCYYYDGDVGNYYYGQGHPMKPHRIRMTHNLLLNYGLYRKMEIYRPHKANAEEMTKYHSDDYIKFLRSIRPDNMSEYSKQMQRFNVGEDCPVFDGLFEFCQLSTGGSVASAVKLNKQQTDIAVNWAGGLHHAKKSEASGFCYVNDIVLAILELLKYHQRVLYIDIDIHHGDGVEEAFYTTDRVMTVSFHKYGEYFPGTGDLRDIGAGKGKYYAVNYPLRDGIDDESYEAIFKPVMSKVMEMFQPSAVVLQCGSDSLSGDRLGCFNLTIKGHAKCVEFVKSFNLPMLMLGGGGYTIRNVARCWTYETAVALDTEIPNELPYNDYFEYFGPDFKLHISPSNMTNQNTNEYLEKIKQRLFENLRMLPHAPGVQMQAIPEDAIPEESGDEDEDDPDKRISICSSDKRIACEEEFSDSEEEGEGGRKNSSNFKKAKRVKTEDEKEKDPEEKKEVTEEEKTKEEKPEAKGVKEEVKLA
Assay: not given
Conditions: not given
With Nc1ccccc1NC(=O)/C=C/c1ccc(NC(=O)Cc2ccccc2)cn1 the IC50 was 0.108 µM. For CC(C)C(C(=O)Nc1ccc(/C=C/C(=O)Nc2ccccc2N)nc1)c1ccccc1 (stereo not given), the IC50 was 0.151 µM. In the case of CC(C)C(C(=O)Nc1ccc(C(=O)Nc2ccccc2N)nc1)c1ccccc1 (stereo not given), the IC50 is reported as 0.33 µM. Nc1ccccc1NC(=O)/C=C/c1ccc(NC(=O)Cc2cccc3ccccc23)cn1 gave an IC50 of 0.063 µM.
